Measurements: ChEMBL document CHEMBL1201862, “PubChem BioAssay data set” (2004)
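Method: 48-hour compound exposure of cells in 96-well plates, five concentrations, linear interpolation of endpoints. GI50 = concentration required for 50% inhibition of growth.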 Activity calls are given as the source filed them. Rule as the data show it: active = GI50 up to about 1.1 µM and inactive = higher.

What was measured:
Assay in all cases: NCI-60 cell line screen, 48 h
ACHN = system: ACHN
786-0 = system: 786-0
CAKI-1 = system: CAKI-1
OVCAR-4 = system: OVCAR-4
BT-549 = system: BT-549
SK-MEL-28 = system: SK-MEL-28
EKVX = system: EKVX
UACC-62 = system: UACC-62
SF-539 = system: SF-539
COLO 205 = system: COLO 205
NCI-H226 = system: NCI-H226
TK-10 = system: TK-10
NCI/ADR-RES = system: NCI/ADR-RES
T47D = system: T47D
OVCAR-8 = system: OVCAR-8
OVCAR-5 = system: OVCAR-5
NCI-H23 = system: NCI-H23
SK-MEL-5 = system: SK-MEL-5
Hs-578T = system: Hs-578T
HOP-92 = system: HOP-92

SMILES | GI50 (ACHN) | GI50 (786-0) | GI50 (CAKI-1) | GI50 (OVCAR-4) | GI50 (BT-549) | GI50 (SK-MEL-28) | GI50 (EKVX) | GI50 (UACC-62) | GI50 (SF-539) | GI50 (COLO 205) | GI50 (NCI-H226) | GI50 (TK-10) | GI50 (NCI/ADR-RES) | GI50 (T47D) | GI50 (OVCAR-8) | GI50 (OVCAR-5) | GI50 (NCI-H23) | GI50 (SK-MEL-5) | GI50 (Hs-578T) | GI50 (HOP-92)
Cc1csc2n(C)c(=O)c3ccccc3[n+]12 | > 100 µM (inactive) | > 100 µM (inactive) | > 100 µM (inactive) | > 100 µM (inactive) | 79.4 µM (inactive) | > 100 µM (inactive) | > 100 µM (inactive) | > 100 µM (inactive) | > 100 µM (inactive) | > 100 µM (inactive) | > 100 µM (inactive) | > 100 µM (inactive) | > 100 µM (inactive) | > 100 µM (inactive) | > 100 µM (inactive) | > 100 µM (inactive) | > 100 µM (inactive) | 98.4 µM (inactive) | > 100 µM (inactive) | 
O=C(O)c1ccc(Nc2nc3cc(C(F)(F)F)ccc3n3cccc23)cc1 | 24.9 µM (inactive) | 22.7 µM (inactive) | 47.3 µM (inactive) |  | 35.7 µM (inactive) | 46.2 µM (inactive) | 62.4 µM (inactive) | 23.9 µM (inactive) | 23.3 µM (inactive) | 22.5 µM (inactive) |  | 28.2 µM (inactive) | 61.9 µM (inactive) | 17.3 µM (inactive) | 49.5 µM (inactive) | 40.8 µM (inactive) | 35.8 µM (inactive) | 17.1 µM (inactive) | 44.4 µM (inactive) | 64.6 µM (inactive)
S=C=NC1CCC(c2cc3ccccc3s2)(N2CCCCC2)CC1 (configuration not stated) | 1.93 µM (inactive) | 1.78 µM (inactive) | 1.88 µM (inactive) | 1.87 µM (inactive) | 2.09 µM (inactive) | 1.6 µM (inactive) | 2.16 µM (inactive) | 1.76 µM (inactive) | 1.95 µM (inactive) | 1.98 µM (inactive) |  | 2 µM (inactive) | 1.84 µM (inactive) | 2.99 µM (inactive) | 1.95 µM (inactive) | 1.75 µM (inactive) | 1.92 µM (inactive) | 1.56 µM (inactive) | 2.08 µM (inactive) | 1.68 µM (inactive)
O=C1CC(O)c2c(Br)sc(Br)c21 (configuration not stated) | 16.2 µM (inactive) | 4.1 µM (inactive) | 2.07 µM (inactive) |  | 29.7 µM (inactive) | 15.7 µM (inactive) | 10.4 µM (inactive) | 13.4 µM (inactive) | 6.5 µM (inactive) | 13.2 µM (inactive) |  | 3.54 µM (inactive) | 30.3 µM (inactive) | 9.59 µM (inactive) | 5.01 µM (inactive) | 21.3 µM (inactive) | 22.7 µM (inactive) | 17.7 µM (inactive) | 25.6 µM (inactive) | 17.9 µM (inactive)
Cc1nn(C(=O)c2ccccc2O)c2c1C(c1ccccc1)SC(=N)N2 (configuration not stated) | 0.419 µM (active) | 1.57 µM (inactive) | 0.547 µM (active) | 1.49 µM (inactive) | > 10 µM (inactive) | > 10 µM (inactive) | > 10 µM (inactive) | 0.44 µM (active) | 0.214 µM (active) | 3.87 µM (inactive) | 1.16 µM (inactive) | 0.897 µM (active) | 1.56 µM (inactive) | 5.43 µM (inactive) | 0.867 µM (active) | 6.08 µM (inactive) | 0.836 µM (active) | 3.19 µM (inactive) | 0.7 µM (active) | 
COc1ccc(C(=O)/C=C/c2ccc(Oc3cc(C(=O)/C=C/c4ccc(O)cc4)c(O)cc3OC)cc2)c(O)c1 [RHUSCHALCONE I] | 2.9 µM (inactive) | 2.51 µM (inactive) | 4.1 µM (inactive) | 3.23 µM (inactive) | 10.4 µM (inactive) | 2.74 µM (inactive) | 4.01 µM (inactive) | 3.27 µM (inactive) | 2.19 µM (inactive) | 4.34 µM (inactive) |  | 4.06 µM (inactive) | 3.24 µM (inactive) | 4.99 µM (inactive) | 3.45 µM (inactive) | 4.19 µM (inactive) | 2.72 µM (inactive) | 4.02 µM (inactive) | 16.7 µM (inactive) | 13.9 µM (inactive)
